Molecular target: T1, PDE4D3 (Homo sapiens, UniProt Q08499)
T1 construct: GST
Assay type: biochemical
Conditions: GST-tagged PDE4D3, 200 nM FAM-cAMP, 11-point dose-response; read-out: PD4d3 pEC50 (converted)

T1 sequence (Q08499 1-673 isoform Q08499-2): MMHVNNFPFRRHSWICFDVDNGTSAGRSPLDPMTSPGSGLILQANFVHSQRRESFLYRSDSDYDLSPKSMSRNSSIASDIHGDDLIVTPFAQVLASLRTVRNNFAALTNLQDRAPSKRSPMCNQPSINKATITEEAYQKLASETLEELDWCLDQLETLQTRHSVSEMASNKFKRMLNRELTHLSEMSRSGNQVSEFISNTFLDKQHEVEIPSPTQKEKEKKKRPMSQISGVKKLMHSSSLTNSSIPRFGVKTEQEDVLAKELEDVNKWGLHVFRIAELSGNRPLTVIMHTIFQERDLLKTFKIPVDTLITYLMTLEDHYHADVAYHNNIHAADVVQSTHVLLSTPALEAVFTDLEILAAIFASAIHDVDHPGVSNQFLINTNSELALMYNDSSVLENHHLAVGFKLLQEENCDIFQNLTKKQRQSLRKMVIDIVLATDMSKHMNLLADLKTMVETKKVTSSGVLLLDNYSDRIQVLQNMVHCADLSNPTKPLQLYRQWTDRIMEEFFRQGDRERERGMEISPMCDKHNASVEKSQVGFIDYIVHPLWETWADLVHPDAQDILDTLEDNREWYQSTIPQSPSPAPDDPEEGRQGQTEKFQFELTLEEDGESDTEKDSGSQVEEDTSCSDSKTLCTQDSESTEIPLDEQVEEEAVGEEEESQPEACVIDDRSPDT

| SMILES | EC50 [nM] |
| --- | --- |
| COc1ncc(Cn2nnnc2CO)cc1-c1ccc(F)c(F)c1 [Example 384, (1-{[5-(3,4-Difluorophenyl)-6-methoxypyridin-3-yl]methyl}-1H-1,2,3,4-tetrazol-5-yl)methanol] | 1000 to 10000 |
| COc1ncc(Cc2cnc(N)c(F)c2)cc1-c1ccnc(OC(F)F)c1 [Example 301, 5-((2′-(Difluoromethoxy)-2-methoxy-[3,4′-bipyridin]-5-yl)methyl)-3-fluoropyridin-2-amine] | < 100 |
| CCOc1ncc(Cn2nnnc2C)cc1-c1cccc(OC(F)F)c1 [Example 399, 3-[3-(Difluoromethoxy)phenyl]-2-ethoxy-5-[(5-methyl-1H-1,2,3,4-tetrazol-1-yl)methyl]pyridine] | < 100 |
| CCOc1ncc(Cn2cnc(CO)n2)cc1-c1ccnc(C(F)(F)F)c1 [Example 339, [1-({6-Ethoxy-5-[2-(trifluoromethyl)pyridin-4-yl]pyridin-3-yl}methyl)-1H-1,2,4-triazol-3-yl]methanol] | 1000 to 10000 |
| NC(=O)Cc1ncc(Cc2cnc(OCC(F)(F)F)c(-c3cccc(Cl)c3)c2)cn1 [Example 370, 2-(5-{[5-(3-Chlorophenyl)-6-(2,2,2-trifluoroethoxy)pyridin-3-yl]methyl}pyrimidin-2-yl)acetamide] | 100 to 1000 |
| COc1ncc(Cn2nc(CO)cc2C)cc1-c1ccnc(OC(F)F)c1 [Example 316, [1-({5-[2-(Difluoromethoxy)pyridin-4-yl]-6-methoxypyridin-3-yl}methyl)-5-methyl-1H-pyrazol-3-yl]methanol] | 100 to 1000 |
| CCOc1ncc(Cn2cc(C(F)F)nc2C)nc1-c1cccc(Cl)c1 [Example 403, 3-(3-Chlorophenyl)-5-{[4-(difluoromethyl)-2-methyl-1H-imidazol-1-yl]methyl}-2-ethoxypyrazine] | 100 to 1000 |
| CCOc1ncc(Cn2cnc(CO)n2)cc1-c1ccc(F)cc1 [Example 342, (1-{[6-Ethoxy-5-(4-fluorophenyl)pyridin-3-yl]methyl}-1H-1,2,4-triazol-3-yl)methanol] | 100 to 1000 |
| COc1ncc(Cc2cnc(N)nc2)cc1-c1ccc(F)c(F)c1 [Example 362, 5-{[5-(3,4-Difluorophenyl)-6-methoxypyridin-3-yl]methyl}pyrimidin-2-amine] | < 100 |
| CCOc1ncc(Cn2nnnc2C)cc1-c1ccc(F)c(F)c1 [Example 395, 3-(3,4-Difluorophenyl)-2-ethoxy-5-[(5-methyl-1H-1,2,3,4-tetrazol-1-yl)methyl]pyridine] | < 100 |
| CCOc1ncc(Cn2cc(CO)nc2C)nc1-c1cccc(Cl)c1 [Example 324, (1-{[6-(3-Chlorophenyl)-5-ethoxypyrazin-2-yl]methyl}-2-methyl-1H-imidazol-4-yl)methanol] | 100 to 1000 |
| COc1ncc(Cn2cc(CO)nc2C)nc1-c1cccc(Cl)c1 [Example 322, (1-{[6-(3-Chlorophenyl)-5-methoxypyrazin-2-yl]methyl}-2-methyl-1H-imidazol-4-yl)methanol] | 100 to 1000 |
| CCOc1ncc(Cn2cnc(CO)n2)cc1-c1cccc(F)c1 [Example 341, (1-{[6-Ethoxy-5-(3-fluorophenyl)pyridin-3-yl]methyl}-1H-1,2,4-triazol-3-yl)methanol] | 100 to 1000 |
| Nc1ncn(Cc2cnc(OC(F)F)c(-c3cccc(Cl)c3)c2)n1 [Example 218, 1-{[5-(3-Chlorophenyl)-6-(difluoromethoxy)pyridin-3-yl]methyl}-1H-1,2,4-triazol-3-amine] | 100 to 1000 |
| COc1ncc(Cc2cnc(NCCO)nc2)cc1-c1ccc(F)cc1 [Example 283, 2-[(5-{[5-(4-Fluorophenyl)-6-methoxypyridin-3-yl]methyl}pyrimidin-2-yl)amino]ethan-1-ol] | 100 to 1000 |
| COc1ncc(Cc2cnc(CO)nc2)cc1-c1cccc(Cl)c1 [Example 299, (5-((5-(3-Chlorophenyl)-6-methoxypyridin-3-yl)methyl)pyrimidin-2-yl)methanol] | < 100 |
| CCOc1ncc(Cn2nnnc2C)cc1-c1ccc(Cl)c(F)c1 [Example 397, 3-(4-Chloro-3-fluorophenyl)-2-ethoxy-5-[(5-methyl-1H-1,2,3,4-tetrazol-1-yl)methyl]pyridine] | 100 to 1000 |

| SMILES | EC50 [nM] |
| --- | --- |
| COc1ncc(Cc2cnc(N)nc2)cc1-c1ccc(Cl)c(F)c1 [Example 361, 5-{[5-(4-Chloro-3-fluorophenyl)-6-methoxypyridin-3-yl]methyl}pyrimidin-2-amine] | 100 to 1000 |
| COc1ncc(Cn2cc(CO)nc2C)cc1-c1ccc(F)c(F)c1 [Example 345, (1-{[5-(3,4-Difluorophenyl)-6-methoxypyridin-3-yl]methyl}-2-methyl-1H-imidazol-4-yl)methanol] | 100 to 1000 |
| CCOc1ncc(Cn2nc(N)cc2C)cc1-c1cccc(Cl)c1 [Example 317, 1-{[5-(3-Chlorophenyl)-6-ethoxypyridin-3-yl]methyl}-5-methyl-1H-pyrazol-3-amine] | 100 to 1000 |
| COc1ncc(Cc2cnc(C)cn2)cc1-c1cccc(Cl)c1 [Example 377, 2-{[5-(3-Chlorophenyl)-6-methoxypyridin-3-yl]methyl}-5-methylpyrazine] | < 100 |
| CCOc1cnc(Cc2cnc(OC)c(-c3cccc(Cl)c3)c2)cn1 [Example 289, 2-((5-(3-Chlorophenyl)-6-methoxypyridin-3-yl)methyl)-5-ethoxypyrazine] | 100 to 1000 |
| CCOc1cc(-c2cc(Cc3cnc(N)nc3)cnc2OC)ccn1 [Example 349, 5-{[5-(2-Ethoxypyridin-4-yl)-6-methoxypyridin-3-yl]methyl}pyrimidin-2-amine] | < 100 |
| COc1ncc(Cc2cnc(CC(N)=O)nc2)cc1-c1ccc(F)c(F)c1 [Example 368, 2-(5-{[5-(3,4-Difluorophenyl)-6-methoxypyridin-3-yl]methyl}pyrimidin-2-yl)acetamide] | < 100 |
| COc1ncc(Cn2cc(C(F)F)nc2C)cc1-c1ccnc(OC(F)F)c1 [Example 297, 2′-(Difluoromethoxy)-5-((4-(difluoromethyl)-2-methyl-1H-imidazol-1-yl)methyl)-2-methoxy-3,4′-bipyridine] | 100 to 1000 |
| COc1ncc(Cc2cnc(CO)cn2)cc1-c1cccc(Cl)c1 [Example 376, (5-{[5-(3-Chlorophenyl)-6-methoxypyridin-3-yl]methyl}pyrazin-2-yl)methanol] | < 100 |
| COc1cc(-c2cc(Cn3cc(CO)nc3C)cnc2OC)ccc1F [Example 343, (1-{[5-(4-Fluoro-3-methoxyphenyl)-6-methoxypyridin-3-yl]methyl}-2-methyl-1H-imidazol-4-yl)methanol] | 1000 to 10000 |
| CCOc1ncc(Cn2nnc(C)n2)cc1-c1ccc(F)c(F)c1 [Example 393, 3-(3,4-Difluorophenyl)-2-ethoxy-5-[(5-methyl-2H-1,2,3,4-tetrazol-2-yl)methyl]pyridine] | < 100 |
| CCOc1cc(-c2cc(Cc3cnc(CO)c(F)c3)cnc2OCC(F)F)ccn1 [Example 404, (5-{[6-(2,2-Difluoroethoxy)-5-(2-ethoxypyridin-4-yl)pyridin-3-yl]methyl}-3-fluoropyridin-2-yl)methanol] | < 100 |
| COc1ncc(Cc2cnc(OCC(N)=O)nc2)cc1-c1cccc(Cl)c1 [Example 298, 2-((5-((5-(3-Chlorophenyl)-6-methoxypyridin-3-yl)methyl)pyrimidin-2-yl)oxy)acetamide] | < 100 |
| CCOc1ncc(Cn2cnc(CO)n2)cc1-c1ccc(Cl)c(Cl)c1 [Example 330, (1-{[5-(3,4-Dichlorophenyl)-6-ethoxypyridin-3-yl]methyl}-1H-1,2,4-triazol-3-yl)methanol] | 100 to 1000 |
| COc1ncc(Cc2cnc(N3CCOCC3)nc2)cc1-c1cccc(Cl)c1 [Example 292] | 1000 to 10000 |
| COc1ncc(Cn2cc(CO)nc2C)cc1-c1ccc(F)cc1 [Example 344, (1-{[5-(4-Fluorophenyl)-6-methoxypyridin-3-yl]methyl}-2-methyl-1H-imidazol-4-yl)methanol] | 100 to 1000 |
| CCOc1ncc(Cn2cnc(CO)n2)cc1-c1ccc(Cl)cc1 [Example 328, (1-{[5-(4-Chlorophenyl)-6-ethoxypyridin-3-yl]methyl}-1H-1,2,4-triazol-3-yl)methanol] | 100 to 1000 |

— US11279691B2, “Substituted pyridine and pyrazine compounds as PDE4 inhibitors” (Dart Neuroscience LLC, priority 2013, dated 2022)
